Measured values: patent US8030443B2, “Squamous cell carcinoma antigen-derived peptide binding to HLA-A24 molecule” (Kurume University, priority 2005, dated 2011)

Tested on: peptide-specific IgG in sera of cancer patients and healthy donors
Assay: Measurement of anti-peptide IgG in plasma by LUMINEX multiplexed flow cytometric assay
Format: binding, human
Method in brief: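 Plasma diluted 1/100 incubated with peptide-coupled colour-coded beads 2 h at RT, then biotinylated goat anti-human IgG (γ-chain) 1 h and streptavidin-PE 30 min; fluorescence read by multiplexed flow cytometry, >100 counted significant. Specificity checked by three rounds of absorption on corresponding versus irrelevant SCCA peptide.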

Sequence: LFGEKTYLFL (SCCA 107-116 peptide) [SCCA-derived peptide, position 107-116]
- Total: healthy donors with significant peptide-reactive IgG / donors tested (10 healthy donors, significant when fluorescence intensity exceeded 100 at 1/100 dilution): 5/10
- Total: cancer patients with significant peptide-reactive IgG / patients tested (71 cancer patients, significant when fluorescence intensity exceeded 100 at 1/100 dilution): 27/71
- Specificity of IgG reactive to the peptide (absorption assay: corresponding vs irrelevant SCCA peptide-coated wells (FIG. 3)): confirmed by absorption assay
- Fluorescence intesity (serum of Breast Ca. patient #36, 1:100 dilution): 211
- Fluorescence intesity (serum of Breast Ca. patient #37, 1:100 dilution): 242
- Fluorescence intesity (serum of Breast Ca. patient #38, 1:100 dilution): 146
- Fluorescence intesity (serum of Breast Ca. patient #39, 1:100 dilution): 149
- Fluorescence intesity (serum of Breast Ca. patient #40, 1:100 dilution): 146
- Fluorescence intesity (serum of Breast Ca. patient #41, 1:100 dilution): 269
- Fluorescence intesity (serum of Breast Ca. patient #42, 1:100 dilution): 219
- Fluorescence intesity (serum of Breast Ca. patient #43, 1:100 dilution): 136
- Fluorescence intesity (serum of Breast Ca. patient #44, 1:100 dilution): 146
- Fluorescence intesity (serum of Breast Ca. patient #45, 1:100 dilution): 272
- Fluorescence intesity (serum of Colon Ca. patient #66, 1:100 dilution): 40
- Fluorescence intesity (serum of Colon Ca. patient #67, 1:100 dilution): 49
- Fluorescence intesity (serum of Colon Ca. patient #68, 1:100 dilution): 0
- Fluorescence intesity (serum of Colon Ca. patient #69, 1:100 dilution): 20
- Fluorescence intesity (serum of Colon Ca. patient #70, 1:100 dilution): 91
- Fluorescence intesity (serum of Colon Ca. patient #71, 1:100 dilution): 70
- Fluorescence intesity (serum of Gastric Ca. patient #56, 1:100 dilution): 38
- Fluorescence intesity (serum of Gastric Ca. patient #57, 1:100 dilution): 114
- Fluorescence intesity (serum of Gastric Ca. patient #58, 1:100 dilution): 133
- Fluorescence intesity (serum of Gastric Ca. patient #59, 1:100 dilution): 237
- Fluorescence intesity (serum of Gastric Ca. patient #60, 1:100 dilution): 24
- Fluorescence intesity (serum of Gastric Ca. patient #61, 1:100 dilution): 282
- Fluorescence intesity (serum of Gastric Ca. patient #62, 1:100 dilution): 37
- Fluorescence intesity (serum of Gastric Ca. patient #63, 1:100 dilution): 29
- Fluorescence intesity (serum of Gastric Ca. patient #64, 1:100 dilution): 67
- Fluorescence intesity (serum of Gastric Ca. patient #65, 1:100 dilution): 72
- Fluorescence intesity (serum of Healthy Donor #1, 1:100 dilution): 53
- Fluorescence intesity (serum of Healthy Donor #2, 1:100 dilution): 297
- Fluorescence intesity (serum of Healthy Donor #3, 1:100 dilution): 67
- Fluorescence intesity (serum of Healthy Donor #4, 1:100 dilution): 0
- Fluorescence intesity (serum of Healthy Donor #5, 1:100 dilution): 331
- Fluorescence intesity (serum of Healthy Donor #6, 1:100 dilution): 0
- Fluorescence intesity (serum of Healthy Donor #7, 1:100 dilution): 0
- Fluorescence intesity (serum of Healthy Donor #8, 1:100 dilution): 454
- Fluorescence intesity (serum of Healthy Donor #9, 1:100 dilution): 246
- Fluorescence intesity (serum of Healthy Donor #10, 1:100 dilution): 106
- Fluorescence intesity (serum of Pancreas Ca. patient #46, 1:100 dilution): 0
- Fluorescence intesity (serum of Pancreas Ca. patient #47, 1:100 dilution): 115
- Fluorescence intesity (serum of Pancreas Ca. patient #48, 1:100 dilution): 431
- Fluorescence intesity (serum of Pancreas Ca. patient #49, 1:100 dilution): 30
- Fluorescence intesity (serum of Pancreas Ca. patient #50, 1:100 dilution): 29
- Fluorescence intesity (serum of Pancreas Ca. patient #51, 1:100 dilution): 2
- Fluorescence intesity (serum of Pancreas Ca. patient #52, 1:100 dilution): 286
- Fluorescence intesity (serum of Pancreas Ca. patient #53, 1:100 dilution): 43
- Fluorescence intesity (serum of Pancreas Ca. patient #54, 1:100 dilution): 126
- Fluorescence intesity (serum of Pancreas Ca. patient #55, 1:100 dilution): 0
- Fluorescence intesity (serum of Uterine cervical Ca. patient #1, 1:100 dilution): 20
- Fluorescence intesity (serum of Uterine cervical Ca. patient #2, 1:100 dilution): 106
- Fluorescence intesity (serum of Uterine cervical Ca. patient #3, 1:100 dilution): 51
- Fluorescence intesity (serum of Uterine cervical Ca. patient #4, 1:100 dilution): 109
- Fluorescence intesity (serum of Uterine cervical Ca. patient #5, 1:100 dilution): 55
- Fluorescence intesity (serum of Uterine cervical Ca. patient #6, 1:100 dilution): 925
- Fluorescence intesity (serum of Uterine cervical Ca. patient #7, 1:100 dilution): 15
- Fluorescence intesity (serum of Uterine cervical Ca. patient #8, 1:100 dilution): 30
- Fluorescence intesity (serum of Uterine cervical Ca. patient #9, 1:100 dilution): 84
- Fluorescence intesity (serum of Uterine cervical Ca. patient #10, 1:100 dilution): 14
- Fluorescence intesity (serum of Uterine cervical Ca. patient #11, 1:100 dilution): 25
- Fluorescence intesity (serum of Uterine cervical Ca. patient #12, 1:100 dilution): 41
- Fluorescence intesity (serum of Uterine cervical Ca. patient #13, 1:100 dilution): 33
- Fluorescence intesity (serum of Uterine cervical Ca. patient #14, 1:100 dilution): 22
- Fluorescence intesity (serum of Uterine cervical Ca. patient #15, 1:100 dilution): 134
- Fluorescence intesity (serum of Uterine cervical Ca. patient #16, 1:100 dilution): 193
- Fluorescence intesity (serum of Uterine cervical Ca. patient #17, 1:100 dilution): 65
- Fluorescence intesity (serum of Uterine cervical Ca. patient #18, 1:100 dilution): 62
- Fluorescence intesity (serum of Uterine cervical Ca. patient #19, 1:100 dilution): 70
- Fluorescence intesity (serum of Uterine cervical Ca. patient #20, 1:100 dilution): 90
- Fluorescence intesity (serum of Uterine cervical Ca. patient #21, 1:100 dilution): 25
- Fluorescence intesity (serum of Uterine cervical Ca. patient #22, 1:100 dilution): 19
- Fluorescence intesity (serum of Uterine cervical Ca. patient #23, 1:100 dilution): 75
- Fluorescence intesity (serum of Uterine cervical Ca. patient #24, 1:100 dilution): 1457
- Fluorescence intesity (serum of Uterine cervical Ca. patient #25, 1:100 dilution): 16
- Fluorescence intesity (serum of Uterine cervical Ca. patient #26, 1:100 dilution): 147
- Fluorescence intesity (serum of Uterine cervical Ca. patient #27, 1:100 dilution): 39
- Fluorescence intesity (serum of Uterine cervical Ca. patient #28, 1:100 dilution): 196
- Fluorescence intesity (serum of Uterine cervical Ca. patient #29, 1:100 dilution): 19
- Fluorescence intesity (serum of Uterine cervical Ca. patient #30, 1:100 dilution): 41
- Fluorescence intesity (serum of Uterine cervical Ca. patient #31, 1:100 dilution): 108
- Fluorescence intesity (serum of Uterine cervical Ca. patient #32, 1:100 dilution): 19
- Fluorescence intesity (serum of Uterine cervical Ca. patient #33, 1:100 dilution): 170
- Fluorescence intesity (serum of Uterine cervical Ca. patient #34, 1:100 dilution): 16
- Fluorescence intesity (serum of Uterine cervical Ca. patient #35, 1:100 dilution): 20
